Assay results from patent US20170008928A1, “NOVEL PEPTIDES AND PEPTIDE DERIVATIVES AND USES THEREOF” (Novo Nordisk A/S, priority 2015, published 2017).
Starred links: 1 amine or outer side, 2 acyl side, 3 side chain; linkers in the order of their positions; H or OH if unused. Non-standard residues stand in square brackets, D forms with d. Residues, ends and D or L forms follow the SMILES beside them. *: point of attachment. Phe(4-CH2SO3H) = N[C@@H](Cc1ccc(CS(=O)(=O)O)cc1)C(=O)O; C20 diacid = O=C(O)CCCCCCCCCCCCCCCCCCC(=O)*; sY = N[C@@H](Cc1ccc(OS(=O)(=O)O)cc1)C(=O)O; C18 diacid = O=C(O)CCCCCCCCCCCCCCCCC(=O)*; γGlu = O=C(O)[C@H](CCC(=O)[*:2])N[*:1]; 1Nal = N[C@@H](Cc1cccc2ccccc12)C(=O)O; C14 diacid = O=C(O)CCCCCCCCCCCCC(=O)*; NMeF = CN[C@@H](Cc1ccccc1)C(=O)O; dNMeD = CN[C@H](CC(=O)O)C(=O)O; Nle = CCCC[C@H](N)C(=O)O; AEEA = NCCOCCOCC(=O)O

Assay: Pharmacokinetic (PK) studies in mini-pig, i.v.
Assay type: in vivo
Settings: i.v. 5 nmol/kg, female Göttingen mini-pigs, harmonic mean
Experimental: The purpose of this study is to determine the protraction in vivo of a number of CCK derivatives of the invention after intravenous (i.v.) administration to mini-pigs, i.e. the prolongation of their time in the body and thereby their time of action. This was done in pharmacokinetic (PK) studies, where the terminal half-life of the derivative in question was determined. By terminal half-life is generally meant the period of time it takes to halve a certain plasma concentration, measured after the initial distribution phase.
The derivatives of the compounds listed in Table 4 were subjected to PK studies as described in the following.
Female Göttingen mini-pigs obtained from Ellegaard Göttingen Minipigs (Dalmose, Denmark) at approximately 6 months of age and weighing approximately 17 kg were used in the studies. […] Additional blood samples were collected for the derivatives of Examples 2, 4, 7, 8, and 9 at the following time points: 5, 12, 22, 28 and 144 hours. The blood samples were collected into test tubes containing EDTA buffer for stabilisation and kept on ice for max. 20 minutes before centrifugation. The centrifugation procedure to separate plasma was: 4° C., approx. 2500 g for 10 minutes. Plasma was collected and immediately transferred to Micronic tubes stored at −20° C. until assayed.
Plasma was pipetted into Micronic tubes on dry ice, and kept at −20° C. until analysed for plasma concentration of the respective CCK derivative using LC-MS. The plasma samples (including standard curve samples used for quantitation of unknowns and prepared from blank plasma spiked with CCK compound at a concentration range of 0.5-2000 nM for the compounds of Examples 3, 5, 6 or 0.5-1000 nM for the remaining Example compounds) were protein precipitated using three volumes of methanol and centrifuged (16000×g, 4° C., 20 min). The supernatants were injected into the chromatographic system (TurboFlow Transcend 1250 & 10 valve VIM, Thermo Fisher Scientific) which consisted of an initial Turboflow Cyclone purification column 0.5×50 mm (Thermo Fischer Scientific) and an eluting Aeris peptide 3.6 μm XB—C18 column 2.1×50 mm (Phenomenex) kept at 60° C.
The CCK derivatives of Examples 2-9 were eluted using LC-MS method I: A chromatographic gradient system with mobile phases consisting of water with 0.1 v/v % formic acid (mobile phase A) and water/acetonitrile 10/90 v/v with 0.1 v/v % formic acid (mobile phase B). The 2 minute gradient started at 60% mobile phase B and ended at 100% mobile phase B with a flow of 0.4 mL/min. The CCK derivatives were detected and quantified after on-line infusion of the LC flow to the LTQ OrbiTrap Discovery mass spectrometer (Thermo Fischer Scientific) equipped with an electrospray interface operated in negative mode, ESI− (Sheath gas flow rate at 40, Aux gas flow rate at 30, Sweep gas flow rate at 2, Spray voltage at 2.8 kV, Capillary temp. at 275° C., S-lens RF level at −125 and Heater temp. at 325° C.).
The remaining Example compounds were eluted using LC-MS method II: A chromatographic gradient system with mobile phases consisting of water with 1 v/v % formic acid (mobile phase A) and water/acetonitrile 10/90 v/v with 1 v/v % formic acid (mobile phase B). The initial 0.25 minute gradient started at 0% mobile phase B and ended at 70% mobile phase B followed by the second 2.2 minute gradient started at 70% mobile phase B and ended at 75% mobile phase B with a flow of 0.4 mL/min. These CCK derivatives were detected and quantified as described above except that the Spray voltage was 4.0 kV.
Individual plasma concentration-time profiles were analysed by a non-compartmental model in Phoenix v. 6.3 (Pharsight Inc., Mountain View, Calif., USA).

Plasma terminal half-life (T½) [h]	half-life (minipig, plasma, iv, read-out: Plasma terminal half-life (T½) (converted)) [h]	SMILES
140		CCCC[C@H](NC(=O)[C@H](Cc1ccc(OS(=O)(=O)O)cc1)NC(=O)[C@H](CC(=O)O)NC(=O)COCCOCCNC(=O)COCCOCCNC(=O)CC[C@H](NC(=O)CCCCCCCCCCCCCCCCC(=O)O)C(=O)O)C(=O)NCC(=O)N[C@@H](Cc1c[nH]c2ccccc12)C(=O)N[C@@H](CCCC)C(=O)N(C)[C@H](CC(=O)O)C(=O)N[C@@H](Cc1cccc2ccccc12)C(N)=O [Example 2, 2-[2-[2-[[2-[2-[2-[[(4S)-4-Carboxy-4-(17-carboxyheptadecanoylamino)butanoyl]amino]ethoxy]ethoxy]acetyl]amino]ethoxy]ethoxy]acetyl-Asp-sTyr-Nle-Gly-Trp-Nle-DMeAsp-1Nal-amide] ({C18 diacid-γGlu-AEEA-AEEA}-D[sY][Nle]GW[Nle][dNMeD][1Nal]-NH2)
	119	CCCC[C@H](NC(=O)[C@H](Cc1c[nH]c2ccccc12)NC(=O)CNC(=O)[C@H](CC(C)C)NC(=O)[C@H](Cc1ccc(OS(=O)(=O)O)cc1)NC(=O)[C@H](CC(=O)O)NC(=O)[C@H](CO)NC(=O)[C@H](CO)NC(=O)CNC(=O)[C@H](CO)NC(=O)[C@H](CO)NC(=O)CNC(=O)CCCCCCCCCCCCCCCCC(=O)O)C(=O)N(C)[C@H](CC(=O)O)C(=O)N(C)[C@@H](Cc1ccccc1)C(N)=O [Example 29, 17-Carboxyheptadecanoyl-Gly-Ser-Ser-Gly-Ser-Ser-Asp-sTyr-Leu-Gly-Trp-Nle-DMeAsp-MePhe-amide] ({C18 diacid}-GSSGSSD[sY]LGW[Nle][dNMeD][NMeF]-NH2)
2		CCCC[C@H](NC(=O)[C@H](Cc1c[nH]c2ccccc12)NC(=O)CNC(=O)[C@H](CC(C)C)NC(=O)[C@H](Cc1ccc(CS(=O)(=O)O)cc1)NC(=O)[C@H](CC(=O)O)NC(=O)COCCOCCNC(=O)COCCOCCNC(=O)CC[C@H](NC(=O)CCCCCCCCCCCCC(=O)O)C(=O)O)C(=O)N(C)[C@H](CC(=O)O)C(=O)N(C)[C@@H](Cc1ccccc1)C(N)=O [Example 34, 2-[2-[2-[[2-[2-[2-[[(4S)-4-Carboxy-4-(13-carboxytridecanoylamino)butanoyl]amino]ethoxy]ethoxy]acetyl]amino]ethoxy]ethoxy]acetyl-Asp-Phe(4-sulfomethyl)-Leu-Gly-Trp-Nle-DMeAsp-MePhe-amide] ({C14 diacid-γGlu-AEEA-AEEA}-D[Phe(4-CH2SO3H)]LGW[Nle][dNMeD][NMeF]-NH2)
153		CCCC[C@H](NC(=O)[C@H](Cc1c[nH]c2ccccc12)NC(=O)CNC(=O)[C@H](CC(C)C)NC(=O)[C@H](Cc1ccc(CS(=O)(=O)O)cc1)NC(=O)[C@H](CC(=O)O)NC(=O)COCCOCCNC(=O)COCCOCCNC(=O)CC[C@H](NC(=O)CCCCCCCCCCCCCCCCCCC(=O)O)C(=O)O)C(=O)N(C)[C@H](CC(=O)O)C(=O)N(C)[C@@H](Cc1ccccc1)C(N)=O [Example 35, 2-[2-[2-[[2-[2-[2-[[(4S)-4-Carboxy-4-(19-carboxynonadecanoylamino)butanoyl]amino]ethoxy]ethoxy]acetyl]amino]ethoxy]ethoxy]acetyl-Asp-Phe(4-sulfomethyl)-Leu-Gly-Trp-Nle-DMeAsp-MePhe-amide] ({C20 diacid-γGlu-AEEA-AEEA}-D[Phe(4-CH2SO3H)]LGW[Nle][dNMeD][NMeF]-NH2)
